# Measurements: patent US10065970B2 (Genentech, Inc., priority 2015, dated 2018)
# Molecular target: PI3Kα (alpha) (Homo sapiens (Human), UniProt P42336)
# Test: p110α (alpha) PI3K Binding Assay (ADP-Glo lipid kinase reaction)
# Assay type: biochemical
# Details: PI3K alpha 0.2 nM, ATP 40 μM, PIP2:3PS 50 μM, 120 min, room temperature; Ki by Morrison Equation; read-out: PI3Kα-(alpha) ATP (Ki) micromolar
# Description: The ability of a compound of the invention to act as an inhibitor of PI3Kα was determined using the methods of Example 901.
# PI3K Binding assays are intended for determining the biochemical potency of small molecule PI3K inhibitors. The PI3K lipid kinase reaction is performed in the presence of PIP2:3PS lipid substrate (Promega #V1792) and ATP. Following the termination if the kinase reaction, turnover of ATP to ADP by the phosphorylation of the lipid substrate is detected using the Promega ADP-Glo™ (Promega #V1792) assay. Reactions are carried out using the following conditions:
# After 120 minutes of reaction time, the kinase reaction is terminated. Any ATP remaining after the reaction is depleted, leaving only ADP. Then the Kinase Detection Reagent is added to convert ADP to ATP, which is used in a coupled luciferin/luciferase reaction. The luminescent output is measured and is correlated with kinase activity.
# All reactions are carried out at room temperature. A 3 μl mixture (1:1) of enzyme/lipid substrate solution is added to a 384 well white assay plate (Perkin Elmer #6007299) containing 50 nl of test compound or DMSO only for untreated controls. The reaction is started by the addition of 2 μl ATP/MgCl2. The kinase reaction buffer contains 50 mM HEPES, 50 mM NaCl, 3 mM MgCl2, 0.01% BSA, 1% DMSO, and enzyme and substrate concentrations as indicated in the above table. The reaction is stopped by the addition of 10 μL ADP-Glo reagent. Plates are read in a Perkin Elmer Envision system using luminescence mode. 10 point dose response curves are generated for each test compound. Ki values for each compound are determined using the Morrison Equation.
# Chain of PI3Kα (alpha) (P42336 whole entry): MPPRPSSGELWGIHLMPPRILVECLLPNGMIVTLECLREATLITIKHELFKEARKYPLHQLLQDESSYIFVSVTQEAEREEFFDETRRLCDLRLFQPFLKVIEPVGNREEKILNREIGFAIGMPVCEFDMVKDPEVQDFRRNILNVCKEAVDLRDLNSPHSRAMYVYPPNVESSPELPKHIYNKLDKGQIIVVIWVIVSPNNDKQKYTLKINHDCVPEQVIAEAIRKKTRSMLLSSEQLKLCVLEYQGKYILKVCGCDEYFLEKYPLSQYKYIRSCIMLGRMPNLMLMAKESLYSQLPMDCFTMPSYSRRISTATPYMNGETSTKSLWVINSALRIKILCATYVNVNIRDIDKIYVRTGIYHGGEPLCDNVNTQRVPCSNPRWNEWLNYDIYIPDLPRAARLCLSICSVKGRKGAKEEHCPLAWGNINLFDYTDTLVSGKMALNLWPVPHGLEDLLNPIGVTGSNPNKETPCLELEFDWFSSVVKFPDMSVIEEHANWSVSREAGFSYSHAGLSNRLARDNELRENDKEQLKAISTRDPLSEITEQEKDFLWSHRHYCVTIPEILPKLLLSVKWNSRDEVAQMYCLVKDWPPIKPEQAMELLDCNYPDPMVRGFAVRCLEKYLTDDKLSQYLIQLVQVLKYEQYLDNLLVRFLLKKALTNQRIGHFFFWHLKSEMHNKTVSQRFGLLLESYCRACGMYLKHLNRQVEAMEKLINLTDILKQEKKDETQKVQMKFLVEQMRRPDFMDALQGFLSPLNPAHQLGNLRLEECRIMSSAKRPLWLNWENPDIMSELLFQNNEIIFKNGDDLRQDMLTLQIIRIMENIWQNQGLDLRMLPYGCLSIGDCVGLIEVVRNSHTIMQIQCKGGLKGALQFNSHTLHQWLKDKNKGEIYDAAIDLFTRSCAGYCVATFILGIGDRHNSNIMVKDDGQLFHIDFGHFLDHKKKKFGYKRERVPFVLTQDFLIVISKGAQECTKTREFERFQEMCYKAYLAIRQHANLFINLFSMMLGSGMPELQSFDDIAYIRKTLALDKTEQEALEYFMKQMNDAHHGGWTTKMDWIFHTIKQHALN
# Chain of PI3Kα (alpha) (P27986 whole entry partner): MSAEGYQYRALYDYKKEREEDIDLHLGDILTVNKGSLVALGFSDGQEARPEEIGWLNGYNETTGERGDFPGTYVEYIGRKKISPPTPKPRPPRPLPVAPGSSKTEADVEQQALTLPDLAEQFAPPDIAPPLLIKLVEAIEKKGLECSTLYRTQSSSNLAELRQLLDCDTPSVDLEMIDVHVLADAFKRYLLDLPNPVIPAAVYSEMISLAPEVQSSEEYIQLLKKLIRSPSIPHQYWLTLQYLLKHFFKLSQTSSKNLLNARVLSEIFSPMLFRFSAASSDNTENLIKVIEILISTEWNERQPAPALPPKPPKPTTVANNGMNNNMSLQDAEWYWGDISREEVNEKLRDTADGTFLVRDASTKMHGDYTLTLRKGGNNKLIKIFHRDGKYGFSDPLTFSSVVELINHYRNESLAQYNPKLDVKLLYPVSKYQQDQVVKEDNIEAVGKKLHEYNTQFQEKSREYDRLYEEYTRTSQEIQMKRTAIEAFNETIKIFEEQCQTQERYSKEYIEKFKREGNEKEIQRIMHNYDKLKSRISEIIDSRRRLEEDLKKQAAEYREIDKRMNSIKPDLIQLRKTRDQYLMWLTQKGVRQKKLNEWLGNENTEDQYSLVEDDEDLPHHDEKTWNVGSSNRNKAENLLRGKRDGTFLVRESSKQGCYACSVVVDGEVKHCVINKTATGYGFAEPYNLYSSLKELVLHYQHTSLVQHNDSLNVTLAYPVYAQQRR
row,Ki [nM],Structure (SMILES)
1,105,"NC(=O)c1ccc(-c2nc3cc(N[C@H](C(N)=O)C4CC4)cc4c3n2CCCO4)cn1 [Example 191, (S)-5-(4-((2-Amino-1-cyclopropyl-2-oxoethyl)amino)-8,9-dihydro-7H-6-oxa-2,9a-diazabenzo[cd]azulen-1-yl)picolinamide]"
2,78,"NC(=O)[C@@H](Nc1cc2c3c(c1)nc(-c1ccc4[nH]c(=O)oc4c1)n3CCCO2)C1CC1 [Example 155, (S)-2-Cyclopropyl-2-((1-(2-oxo-2,3-dihydrobenzo[d]oxazol-6-yl)-8,9-dihydro-7H-6-oxa-2,9a-diazabenzo[cd]azulen-4-yl)amino)acetamide]"
3,0.032,"C[C@H](Nc1cc2c3c(c1)nc(-c1ccc4oc(N)nc4c1)n3CCCO2)C(N)=O [Example 105, (S)-2-((1-(2-Aminobenzo[d]oxazol-5-yl)-8,9-dihydro-7H-6-oxa-2,9a-diazabenzo[cd]azulen-4-yl)amino)propanamide]"
4,314,"NC(=O)[C@@H](Nc1cc2c3c(c1)nc(-c1ccc4oc(=O)[nH]c4c1)n3CCCO2)C1CC1 [Example 196, (S)-2-Cyclopropyl-2-((1-(2-oxo-2,3-dihydrobenzo[d]oxazol-5-yl)-8,9-dihydro-7H-6-oxa-2,9a-diazabenzo[cd]azulen-4-yl)amino)acetamide]"
5,5.62,"COC[C@H](Oc1cc2c3c(c1)nc(-c1ccc4nc(N)sc4c1)n3CCCCO2)C(N)=O (single isomer, unassigned) [Example 303]"
6,21,"COc1ccc(CNC(=O)[C@@H]2CCCN2c2cc3c4c(c2)nc(-c2ccc5oc(N)nc5c2)n4CCCO3)cc1 [Example 236, (S)-1-(1-(2-Aminobenzo[d]oxazol-5-yl)-8,9-dihydro-7H-6-oxa-2,9a-diazabenzo[cd]azulen-4-yl)-N-(4-methoxybenzyl)pyrrolidine-2-carb oxamide]"
7,0.214,"CC[C@H](C(N)=O)n1cc(-c2cc3c4c(c2)nc(-c2ccc5oc(N)nc5c2)n4CCCO3)cn1 [Example 216, (R)-2-(4-(1-(2-Aminobenzo[d]oxazol-5-yl)-8,9-dihydro-7H-6-oxa-2,9a-diazabenzo[cd]azulen-4-yl)-1H-pyrazol-1-yl)butanamide]"
8,0.04,"C[C@H]1CCN(c2cc3c4c(c2)nc(-c2ccc5oc(N)nc5c2)n4CCCCO3)[C@@H]1C(N)=O [Example 309, (2S,3S)-1-(1-(2-Aminobenzo[d]oxazol-5-yl)-7,8,9,10-tetrahydro-6-oxa-2,10a-diazacycloocta[cd]inden-4-yl)-3-methylpyrrolidine-2-carboxamide]"
9,0.038,"CC[C@@H](C(N)=O)n1cc(-c2cc3c4c(c2)nc(-c2ccc5oc(N)nc5n2)n4CCCCO3)cn1 (single isomer, unassigned) [Example 301]"
10,0.108,"C[C@H](Oc1cc2c3c(c1)nc(-c1ccc4oc(N)nc4n1)n3CCCO2)C(N)=O [Example 266, (S)-2-((1-(2-Aminooxazolo[4,5-b]pyridin-5-yl)-8,9-dihydro-7H-6-oxa-2,9a-diazabenzo[cd]azulen-4-yl)oxy)propanamide]"
11,32.2,"NC(=O)[C@@H](Nc1cc2c3c(c1)nc(-c1ccc4ncsc4c1)n3CCCO2)C1CC1 [Example 178, (S)-2-((1-(Benzo[d]thiazol-6-yl)-8,9-dihydro-7H-6-oxa-2,9a-diazabenzo[cd]azulen-4-yl)amino)-2-cyclopropylacetamide]"
12,83.7,"NC(=O)[C@@H]1CCCN1c1cc2c3c(c1)nc(-c1ccc(N4CCNC4=O)cc1)n3CCCO2 [Example 234, (S)-1-(1-(4-(2-Oxoimidazolidin-1-yl)phenyl)-8,9-dihydro-7H-6-oxa-2,9a-diazabenzo[cd]azulen-4-yl)pyrrolidine-2-carboxamide]"
13,1.95,"NC(=O)[C@@H]1COCCN1c1cc2c3c(c1)nc(-c1ccc4nc(N)sc4c1)n3CCCCO2 [Example 262, (S)-4-(1-(2-Aminobenzo[d]thiazol-6-yl)-7,8,9,10-tetrahydro-6-oxa-2,10a-diazacycloocta[cd]inden-4-yl)morpholine-3-carboxamide]"
14,< 0.02,"NC(=O)[C@@H](Nc1cc2c3c(c1)nc(-c1ccc4oc(N)nc4c1)n3CCO2)C1CC1 [Example 208, (S)-2-((2-(2-Aminobenzo[d]oxazol-5-yl)-3,4-dihydro-5-oxa-1,2a-diazaacenaphthylen-7-yl)amino)-2-cyclopropylacetamide]"
15,22.1,"C[C@H](Nc1cc2c3c(c1)nc(-c1cccnc1)n3CCCO2)C(N)=O [Example 108, (S)-2-((1-(Pyridin-3-yl)-8,9-dihydro-7H-6-oxa-2,9a-diazabenzo[cd]azulen-4-yl)amino)propanamide]"
16,1.71,"C[C@@H](Oc1cc2c3c(c1)nc(-c1ccc4nc(N)sc4c1F)n3CCCCO2)C(N)=O (single isomer, unassigned) [Example 287]"
17,< 0.02,"C[C@H](Oc1cc2c3c(c1)nc(-c1cc(F)c4oc(N)nc4c1)n3CCCCO2)C(N)=O [Example 249, (S)-2-((1-(2-Amino-7-fluorobenzo[d]oxazol-5-yl)-7,8,9,10-tetrahydro-6-oxa-2,10a-diazacycloocta[cd]inden-4-yl)oxy)propanamide]"
18,740,"NC(=O)[C@@H](Nc1cc2c3c(c1)nc(N1CCOCC1)n3CCCO2)C1CC1 [Example 141, (S)-2-Cyclopropyl-2-((1-morpholino-8,9-dihydro-7H-6-oxa-2,9a-diazabenzo[cd]azulen-4-yl)amino)acetamide]"
19,46.5,"COc1cnc2cc(-c3nc4cc(N[C@H](C(N)=O)C5CC5)cc5c4n3CCCO5)ccc2n1 [Example 173, (S)-2-Cyclopropyl-2-((1-(2-methoxyquinoxalin-6-yl)-8,9-dihydro-7H-6-oxa-2,9a-diazabenzo[cd]azulen-4-yl)amino)acetamide]"
20,268,"NC(=O)[C@@H](Nc1cc2c3c(c1)nc(-c1ccc4c(c1)OC(F)(F)O4)n3CCCO2)C1CC1 [Example 113, (S)-2-Cyclopropyl-2-((1-(2,2-difluorobenzo[d][1,3]dioxol-5-yl)-8,9-dihydro-7H-6-oxa-2,9a-diazabenzo[cd]azulen-4-yl)amino)acetamide]"
21,160,"C[C@H](Nc1cc2c3c(c1)nc(-c1ccccn1)n3CCCO2)C(N)=O [Example 112, (S)-2-((1-(Pyridin-2-yl)-8,9-dihydro-7H-6-oxa-2,9a-diazabenzo[cd]azulen-4-yl)amino)propanamide]"
22,382,"NC(=O)[C@@H](Nc1cc2c3c(c1)nc(-c1ccc(F)cc1F)n3CCCO2)C1CC1 [Example 145, (S)-2-Cyclopropyl-2-((1-(2,4-difluorophenyl)-8,9-dihydro-7H-6-oxa-2,9a-diazabenzo[cd]azulen-4-yl)amino)acetamide]"
23,4.6,"C[C@@H](Oc1cc2c3c(c1)nc(-c1cc4sc(N)nc4cc1F)n3CCCCO2)C(N)=O (single isomer, unassigned) [Example 278]"
24,121,"NC(=O)[C@@H](Nc1cc2c3c(c1)nc(N1CCn4ncnc4C1)n3CCCO2)C1CC1 [Example 161, (S)-2-Cyclopropyl-2-((1-(5,6-dihydro-[1,2,4]triazolo[1,5-a]pyrazin-7(8H)-yl)-8,9-dihydro-7H-6-oxa-2,9a-diazabenzo[cd]azulen-4-yl)amino)acetamide]"
25,6.88,"NC(=O)[C@@H]1CCCN1c1cc2c3c(c1)nc(-c1ccc(-c4cc[nH]n4)cc1)n3CCCO2 [Example 229, (S)-1-(1-(4-(1H-Pyrazol-3-yl)phenyl)-8,9-dihydro-7H-6-oxa-2,9a-diazabenzo[cd]azulen-4-yl)pyrrolidine-2-carboxamide]"
26,1.02,"NC(=O)[C@H](Oc1cc2c3c(c1)nc(-c1cc(F)c4nc(N)sc4c1)n3CCCCO2)C1CC1 (single isomer, unassigned) [Example 279]"
27,1.64,"Nc1nc2cc(-c3nc4cc(NC5CC(F)(F)C5)cc5c4n3CCCO5)ccc2o1 [Example 192, 1-(2-Aminobenzo[d]oxazol-5-yl)-N-(3,3-difluorocyclobutyl)-8,9-dihydro-7H-6-oxa-2,9a-diazabenzo[cd]azulen-4-amine]"
28,0.431,"CCc1cc(-c2nc3cc(N[C@H](C(N)=O)C4CC4)cc4c3n2CCCO4)cc2nc(N)oc12 [Example 225, (S)-2-((1-(2-Amino-7-ethylbenzo[d]oxazol-5-yl)-8,9-dihydro-7H-6-oxa-2,9a-diazabenzo[cd]azulen-4-yl)amino)-2-cyclopropylacetamide]"
29,0.072,"C[C@H](Oc1cc2c3c(c1)nc(-c1ccc4nc(N)sc4c1F)n3CCCCO2)C(N)=O (single isomer, unassigned) [Example 286]"

# Same assay, conditions: read-out: PI3Kα-(alpha) ATP (Ki) micromolar
row,Ki [nM],Structure (SMILES)
1,0.031,"CC[C@@H](C(N)=O)n1cc(-c2cc3c4c(c2)nc(-c2ccc5oc(N)nc5n2)n4CCCO3)cn1 (single isomer, unassigned) [Example 311]"
2,0.024,"NC(=O)[C@@H]1CCCN1c1cc2c3c(nc(-c4ccc5oc(N)nc5c4)n3CCCCO2)c1F [Example 247, (S)-1-(1-(2-Aminobenzo[d]oxazol-5-yl)-3-fluoro-7,8,9,10-tetrahydro-6-oxa-2,10a-diazacycloocta[cd]inden-4-yl)pyrrolidine-2-carboxamide]"
